According to patent US20100120690A1, “Polypeptides Having Antimicrobial Activity and Polynucleotides Encoding Same” (Novozymes Adenium Biotech A/S, priority 2005, published 2010):

Legend:
M. luteus = test: Minimal Effective Concentration (MEC) assay; assay type: cell-based, Micrococcus luteus
Procedure: (§1) Three antimicrobial polypeptides, which are variants of SEQ ID NO: 1, were tested for antimicrobial activity. A Minimal Effective Concentration assay (MEC, expressed as micrograms/mL) against different microorganisms was performed using the three plectasin mutants, Y40YR, N17R and Y25R following the protocol described in the book of Methods in Molecular Biology, Vol. 78, Antibacterial peptide protocol William M. Shafer, Human Press.

B. subtilis = test: Minimal Effective Concentration (MEC) assay; assay type: cell-based, Bacillus subtilis
Procedure: as §1

S. epidermis = test: Minimal Effective Concentration (MEC) assay; assay type: cell-based, Staphylococcus epidermidis
Procedure: as §1

Staphylococcus carnosus = test: TAPS (Trans Acting Peptide System) assay, radial diffusion read-out; assay type: cell-based; design: key: classified as 4>3>2>1; whereas 4 is better than 1; classified as 4>3>2>1; classified as 4>3>2>1; wildtype activity corresponds to 1; conditions: peptide expressed in E. coli
Procedure: A range of antimicrobial polypeptides, which are variants of SEQ ID NO: 1, were tested in the TAPS assay. TAPS may be used to identify new or improved genes encoding peptides that can kill or inhibit the growth of target cells (see PCT application WO 2004/033715). The TAPS assay, an acronym for Trans Acting Peptide System, is based on having a sensitive host producing a peptide followed by screening for its activity in trans against an indicator strain. The advantage of this system is based on that the antimicrobial peptide is expressed in the Gram-negative bacterium E. coli and its antimicrobial activity can be monitored on different microbes including Gram-negatives, positives or fungi. Additionally, TAPS offers the possibility to produce correctly folded AMPs containing disulfide bonds in the host cells, thereby retaining their antimicrobial activities.
The TAPS approach requires first, that expression of the peptide is under control of an inducible promoter with tight regulation, because the host cells are sensitive to the peptide when producing it. Secondly, the produced peptide has to be released to the media so that it can interact with the target organism.
The TAPS screening can be carried out either in solid or liquid media. On solid media, a plasmid library is initially introduced into E. coli host cells. […] In the next step, the filter containing the colonies is transferred to LB growth medium containing inducer (0.1% arabinose) to permit peptide synthesis. Subsequently, the target strain, for example S. carnosus, is overlaid onto the plate and allowed to grow for 12-16 hours at 37° C. Finally, visual inspection of the host cells capable of reducing the proliferation of the target cells is performed and the nucleotide sequence encoding for the antimicrobial peptide is recovered from the host cells. DNA sequence analysis of the variants is obtained to elucidate the nature of the peptide.
As mentioned above, the TAPS screening can also be performed using liquid medium. This procedure requires the use of robotics to analyze large number of clones. In this system, the host E. coli origami cells are transformed with the plasmid library and plated out on LB medium+0.2% glucose+ampicillin (200 mg/L). Independent colonies are then inoculated into 96 or 384-well plates containing 200 micro-L of TB medium+ampicillin (200 mg/L) and cultured overnight at 37° C. These cultures are then replicated robotically and grown to exponential phase until inducer (0.1% arabinose) is added to trigger peptide synthesis. The next step consists in hydrolyzing the cells such that the peptide is released to the media by hot acid hydrolysis. This treatment consists on adding 1 M sodium Phosphate buffer pH 2.3 to obtain a final pH approximately of 2.3 and incubating the cultures overnight at 80° C. Next day, a 25 micro-L aliquot of the hydrolyzed cultures is used to perform an activity test against the desired target organisms. The activity test performed was a Radial Diffusion Assay (RDA) where an aliquot of the hydrolyzed cultures was added to the agarose media inoculated with the target strain, S. carnosus. […] Measurements of the diameter of the clearing zones were performed to quantify the potency of the antimicrobial activity of the peptides.
The antimicrobial activity (against Staphylococcus carnosus) of the tested plectasin variants, which was measured using the TAPS assay, is shown in table 3. The antimicrobial activity corresponds to the clearing zone size and has been classified as 4>3>2>1; whereas 4 is better than 1, and wildtype activity corresponds to 1.

[1] = system: Staphylococcus aureus, MRSA ST80 (2003); test: MIC, NCCLS/CLSI guidelines (Example 5), strain E; assay type: cell-based; conditions: relative to wildtype Plectasin; average of two independent experiments
Summary of the method: (§2)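 Purified Plectasin variants were tested for MIC per NCCLS/CLSI guidelines; strains D and E are multi-resistant clinical human MRSA isolates. MICs average two independent experiments and are scored relative to wild-type Plectasin MIC: 0 >100%, 1 80-100%, 2 50-80%, 3 <50%.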

[2] = system: Staphylococcus aureus, ATCC 29737; test: MIC, NCCLS/CLSI guidelines (Example 5), strain C; assay type: cell-based; conditions: relative to wildtype Plectasin; average of two independent experiments
Summary of the method: (§3)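 Relative MIC category versus wild-type plectasin (0 >100%, 1 80-100%, 2 50-80%, 3 <50%), mean of two experiments. Determined per CLSI broth guidelines with expressed, purified peptides.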

[3] = system: Staphylococcus aureus, ATCC 25923; test: MIC, NCCLS/CLSI guidelines (Example 5), strain B; assay type: cell-based; conditions: relative to wildtype Plectasin; average of two independent experiments
Summary of the method: as §3

[4] = system: panel of 6 different strains of Staphylococcus aureus; test: Average MIC, NCCLS/CLSI guidelines using caMHB (Example 6); assay type: cell-based; conditions: average over 6 S. aureus strains, duplicate; MIC above 32 counted as 64; read after 18-24 hours at 37° C.
Summary of the method: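 MICs were determined by broth dilution per NCCLS/CLSI in caMHB against six S. aureus strains (four MSSA, two MRSA), with peptides at 0.03–32 microgram/mL, read after 18-24 h at 37° C. Each was tested in duplicate and the two results averaged; MICs above 32 micrograms/mL were counted as 64.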

[5] = system: Staphylococcus aureus, MRSA ST5 (2001); test: MIC, NCCLS/CLSI guidelines (Example 5), strain D; assay type: cell-based; conditions: relative to wildtype Plectasin; average of two independent experiments
Summary of the method: as §2

| Substance | MEC against M. luteus (M. luteus) [micrograms/mL] | MEC against B. subtilis (B. subtilis) [micrograms/mL] | MEC against S. epidermis (S. epidermis) [micrograms/mL] | Activity (antimicrobial activity, clearing zone size) (Staphylococcus carnosus) | Relative MIC, strain E [1] | Relative MIC, strain C [2] | Relative MIC, strain B [3] | Average MIC [4] [micrograms/mL] | Relative MIC, strain D [5] |
| --- | --- | --- | --- | --- | --- | --- | --- | --- | --- |
| GFGCNGPWDEDDMQCHNHCKSIKGYKGGYCAKGGFVCKCYR [Mutation Y40YR] | 0.18 | 0.05 | 0.31 | 2 |  |  |  |  |  |
| Y25R (GFGCNGPWDEDDMQCHNHCKSIKGRKGGYCAKGGFVCKCY) [Mutation Y25R] | 1.40 | 0.04 |  |  |  |  |  |  |  |
| GFGCNGPWDEDDMQCHRHCKSIKGYKGGYCAKGGFVCKCY [Mutation N17R] | 0.32 | 0.07 | 0.59 | 2 | 2 (50-80% of Plectasin wildtype MIC) | 3 (<50% of Plectasin wildtype MIC) | 3 (<50% of Plectasin wildtype MIC) | 4 | 3 (<50% of Plectasin wildtype MIC) |
